In general, Ki refers to the dissociation constant of the complex between target and ligand, obtained from inhibition or displacement. A high value points to lower affinity.

The values that follow come from publication PMC6166228 (ACS Omega, 2018).

The target in one series is T1, human AT1 receptor (Homo sapiens, UniProt P30556).
T1 sequence (P30556 1-359): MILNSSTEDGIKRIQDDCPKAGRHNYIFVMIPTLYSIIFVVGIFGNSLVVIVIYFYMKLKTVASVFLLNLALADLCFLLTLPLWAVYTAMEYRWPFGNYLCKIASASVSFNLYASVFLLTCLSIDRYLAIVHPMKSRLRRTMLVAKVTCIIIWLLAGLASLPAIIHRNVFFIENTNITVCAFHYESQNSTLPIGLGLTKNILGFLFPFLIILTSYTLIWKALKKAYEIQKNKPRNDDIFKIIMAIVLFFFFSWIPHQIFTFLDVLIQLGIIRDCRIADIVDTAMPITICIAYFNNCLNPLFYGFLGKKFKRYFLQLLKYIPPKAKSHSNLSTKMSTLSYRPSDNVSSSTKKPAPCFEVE
The class given is binding.

The conditions of series [1]: no species and reference not given; cited from earlier work.

The structures appear in SMILES notation.

Regarding `CC(C)[C@@H](C(=O)O)N(Cc1ccc(-c2ccccc2-c2nnn[nH]2)cc1)C(=O)CCCCF` [FV45, (S)-2-(N-((2′-(1H-Tetrazol-5-yl)-[1,1′-biphenyl]-4-yl)methyl)-5-fluoropentanamido)-3-methylbutanoic Acid], the inhibitory constant (Ki) at human AT1 receptor came out at 14.6 nM.

As to `CCCCC(=O)N(Cc1ccc(-c2ccccc2-c2nnn[nH]2)cc1)[C@H](C(=O)O)C(C)C` [valsartan], the average half-life result in series [1] was “around 6 h”.
